Data from patent US6797712B2, “Substituted amino-furan-2-yl-acetic acid and amino-thien-2-yl-acetic acid derivatives and their use in the treatment of migraine and pain” (Gruenenthal GmbH, priority 2000, dated 2004).
Where a name gives a salt, the structure may show the parent alone.

Molecular target: T1, glycine binding site of the NMDA receptor channel (Rattus norvegicus, UniProt P35439)
T1 construct: from tissue; host or cells: rat brain cortex and hippocampus membrane homogenate (male Wistar rats)
Assay: Receptor binding studies, displacement of (3H)-MDL 105,519 from brain membrane homogenates
Conditions: for Displacement (%, 10 μmol) / inhibition at 10 µM: percentage of bonded radioactive ligand (3H)-MDL 105,519 displaced from specific binding at 10 μM of test substance; for Ki: glycine binding site of the NMDA receptor channel, rat cortex/hippocampus membrane homogenate, 1 nmol/l (3H)-MDL 105,519, from IC50 by Cheng-Prussoff equation; for inhibition at 10 µM: read-out: Displacement (%, 10 μmol)
Method: The tests to determine the affinity of the compounds of formula (I) according to the invention for the glycine binding site of the NMDA receptor channel were carried out on brain membrane homogenates (homogenate of cortex and hippocampus area from the brains of male rats, Wistar strain) (B. M. Baron, B. W. Siegel, B. L. Harrison, R. S. Gross, C. Hawes and P. Towers, Journal of Pharmacology and Experimental Therapeutics, (1996), Vol. 279, p. 62).
To that end, cortex and hippocampus from freshly removed rat brains were exposed and homogenized, while cooling with ice, in 5 mmol/l of TRIS acetate buffer, […] of saccharose pH 7.4 (10 ml/g fresh weight) using a Potter homogenizer (Braun/Melsungen; 10 piston strokes at 500 rpm) and then centrifuged for 10 minutes at 1000 g and 4° C. The first supernatant was collected and the sediment was again homogenized, while cooling with ice, with 5 mmol/l of TRIS acetate buffer, 0.32 mol/l of saccharose pH 7.4 (5 ml/g original fresh weight) using the Potter homogenizer (10 piston strokes at 500 rpm) and centrifuged for 10 minutes at 1000 g and 4° C. The resulting supernatant was combined with the supernatant from the first centrifugation and centrifuged for 20 minutes at 17,000 g and 4° C. The supernatant from this centrifugation was discarded and the membrane sediment was taken up in 5 mmol/l of TRIS acetate buffer pH 8.0 (20 ml/g original fresh weight) and homogenized with 10 piston strokes at 500 rpm.
The membrane homogenate was then incubated for one hour at 4° C. and centrifuged for 30 minutes at 50,000 g and 4° C. The supernatant was discarded and the centrifuge tube containing the membrane sediment was closed with Parafilm and frozen for 24 hours at −20° C. On the following day, the membrane sediment was thawed and taken up in 5 mmol/l of ice-cold TRIS acetate buffer, 0.1% saponin (w/v) pH 7.0 (10 ml/g original fresh weight) and homogenized with 10 piston strokes at 500 rpm and then centrifuged for 20 minutes at 50,000 g and 4° C. The resulting supernatant was discarded and the sediment was taken up in a small volume in 5 mmol/l of TRIS acetate buffer pH 7.0 (about 2 ml/g original fresh weight) and again homogenized with 10 piston strokes at 500 rpm. After determination of the protein content, the membrane homogenate was adjusted to a protein concentration of 10 mg of protein/ml with 5 mmol/l TRIS acetate buffer pH 7.0, and was frozen in aliquots until testing.
For the receptor binding test, aliquots were thawed, diluted 1:10 with 5 mmol/l of TRIS acetate buffer pH 7.0, homogenized, while cooling with ice, with 10 piston strokes at 500 rpm using the Potter homogenizer (10 piston strokes at 500 rpm) and centrifuged for 60 minutes at 55,000 g and 4° C. The supernatant was decanted off and the membrane sediment was adjusted to a protein concentration of 1 mg/ml with 50 mmol/l of ice-cold TRIS acetate buffer pH 7.0 and again homogenized with 10 piston strokes at 500 rpm and maintained in suspension in an ice-bath while stirring with a magnetic stirrer. Of that membrane homogenate, 100 μl per 1 ml batch were used in the receptor binding test (0.1 mg protein/ml in the final batch).
In the binding test, 50 mmol/l of TRIS acetate buffer pH 7.0 were used as the buffer, and 1 nmol/l of (^3H)-MDL 105,519 (B. M. Baron et al. 1996) was used as the radioactive ligand. The proportion of non-specific binding was determined in the presence of 1 mmol/l of glycine.
In further batches, the compounds according to the invention were added in series of concentrations and the displacement of the radioactive ligand from its specific binding to the glycine binding site of the NMDA receptor channel was determined. The respective triplicate batches were incubated for 120 minutes at 4° C. and then harvested by means of filtration through glass fiber filter mats (GF/B) for determination of the radioactive ligand bonded to the membrane homogenate. […]

Displacement (%, 10 μmol)	Ki	inhibition at 10 µM	Structure (SMILES)	binding to the glycine binding site of the NMDA ion channel (statement in words) (general statement in the description, no values)
–	–	–	COc1ccc(NC(C(=O)O)c2cccs2)cc1 (centres unmarked) [(4-methoxy-phenylamino)-thien-2-yl-acetic acid, reference compound]	bind selectively to the glycine binding site of the NMDA ion channel
65%	–	–	CSCc1ccc(C(Nc2cc(Cl)cc(Cl)c2)C(=O)O)o1 (centres unmarked) [Example 106, (3,5-Dichloro-phenylamino)-(5-methylsulfanylmethyl-furan-2-yl)-acetic acid]	–
91%	–	–	CSCc1ccc(C(Nc2cc(Cl)cc(Cl)c2)C(=O)O)o1.Cl (centres unmarked) [Example 106-HCl, (3,5-Dichloro-phenylamino)-(5-methylsulfanylmethyl-furan-2-yl)-acetic acid hydrochloride]	–
78%	2980 nM	–	CSCc1ccc(C(Nc2cc(Cl)cc(Cl)c2)C(=O)O)o1.[Na] (centres unmarked) [Example 106-Na, (3,5-Dichloro-phenylamino)-(5-methylsulfanylmethyl-furan-2-yl)-acetic acid sodium]	–
–	–	101%	O=C(O)C(Nc1cc(Cl)cc(Cl)c1)c1ccc(CS)o1 (centres unmarked) [Example 107, (3,5-Dichloro-phenylamino)-(5-mercaptomethyl-furan-2-yl)-acetic acid]	–
–	–	66%	O=C(O)C(Nc1cc(Cl)cc(Cl)c1)c1ccc(CO)s1 (centres unmarked) [Example 109, (3,5-Dichloro-phenylamino)-(5-hydroxymethyl-thiophen-2-yl)-acetic acid]	–
–	120 nM	104%	CC(=O)SCc1ccc(C(Nc2cc(Cl)cc(Cl)c2)C(=O)O)o1 (centres unmarked) [Example 110, (5-Acetylsulfanylmethyl-furan-2-yl)-(3,5-dichloro-phenylamino)-acetic acid]	–
–	–	44%	CCc1ccc(C(Nc2cc(Cl)cc(Cl)c2)C(=O)O)s1 (centres unmarked) [Example 111, (3,5-Dichloro-phenylamino)-(5-ethyl-thiophen-2-yl)-acetic acid]	–
–	–	99%	O=C(O)C(Nc1cccc(Cl)c1)c1ccc(CS)o1 (centres unmarked) [Example 113, (3-Chloro-phenylamino)-(5-mercaptomethyl-furan-2-yl)-acetic acid]	–
–	–	45%	O=C(O)C(Nc1ccc(Cl)c(Cl)c1)c1ccc(CS)o1 (centres unmarked) [Example 114, (3,4-Dichloro-phenylamino)-(5-mercaptomethyl-furan-2-yl)-acetic acid]	–
–	–	91%	CC(C)(C)c1ccc(C(Nc2cc(Cl)cc(Cl)c2)C(=O)O)o1 (centres unmarked) [Example 119-HCl, (5-tert-Butylfuran-2-yl)-(3,5-dichlorophenylamino)-acetic acid hydrochloride]	–
–	470 nM	103%	O=C(O)C(Nc1cc(Cl)cc(Cl)c1)c1ccc(CSSCc2ccco2)o1 (centres unmarked) [Example 120, (3,5-Dichlorophenylamino)-[5-(furan-2-ylmethyldisulfanylmethyl)-furan-2-yl]-acetic acid]	–
–	290 nM	106%	CSSCc1ccc(C(Nc2cc(Cl)cc(Cl)c2)C(=O)O)o1 (centres unmarked) [Example 121, (3,5-Dichlorophenylamino)-(5-methyldisulfanylmethyl-furan-2-yl)-acetic acid]	–
–	5030 nM	63%	Cc1ccc(C(Nc2cc(Cl)cc(Cl)c2)C(=O)O)s1 (centres unmarked) [Example 125-Na, (3,5-Dichlorophenylamino)-(5-methylthiophen-2-yl)-acetic acid sodium salt]	–
–	15400 nM	52%	Cc1csc(C(Nc2cc(Cl)cc(Cl)c2)C(=O)O)c1 (centres unmarked) [Example 126, (3,5-Dichlorophenylamino)-(4-methylthiophen-2-yl)-acetic acid]	–
–	2570 nM	68%	O=C(O)C(Nc1cc(Cl)cc(Cl)c1)c1ccc(Cl)s1 (centres unmarked) [Example 127, (5-Chlorothiophen-2-yl)-(3,5-dichlorophenylamino)-acetic acid]	–
72%	–	–	O=C([O-])C(Nc1cc(Cl)cc(Cl)c1)c1ccc(Cl)s1.[Na+] (centres unmarked) [Example 127-Na, (3,5-Dichlorophenylamino)-(5-chlorothiophen-2-yl)-acetic acid sodium salt]	–

Structure (SMILES)	Displacement (%, 10 μmol)	Ki	inhibition at 10 µM	binding to the glycine binding site of the NMDA ion channel (statement in words) (general statement in the description, no values)
CC(=O)OCc1ccc(C(Nc2cc(Cl)cc(Cl)c2)C(=O)O)o1 (centres unmarked) [Example 123, (5-Acetoxymethylfuran-2-yl)-(3,5-dichlorophenylamino)-acetic acid]	–	5030 nM	60%	–
